Read-outs that look alike come from different tables or passages of the source.
Assays:
[1] = target: T1, [V390I/Y410E/E274V]-CfEcR (Choristoneura fumiferana, UniProt O77240); assay type: cell-based; settings: 3T3 Cells; for RMFI (relative maximum fold induction): relative to GS-E ligand
T1 construct: assay construct b835
Protocol: (§1) Cellular gene switch assays were performed by transiently transfecting the following constructs in mouse embryonic fibroblast cells (NIH3T3). The wild-type D, E and F domains from Choristoneura fumiferana EcR or its V390I/Y410E/E274V mutant were fused to GAL4-DBD and placed under the control of the CMV promoter in the pBIND vector (Promega Corporation, Madison, Wis., USA). The DEF domains of EcRs shown were amplified using primers designed based on 20-25 nt sequences at the 5′ and 3′ ends. Restriction enzyme sites EcoR I/BamH I and Xba I were added to 5′ and 3′ primers respectively. The PCR products were digested with appropriate restriction enzymes and cloned into pBIND vector. The EcR LBDs cloned into pBIND vector were verified by sequencing. A chimeric RXR from Homo sapiens RXRP and Locusta migratoria RXR, fused to VP16-AD and placed under the control of an SV40e promoter, was constructed as previously described (Kumar P & Katakam A in Gene Transfer, Friedmann T and Rossi J, eds, pp. 643-651 (2007), Cold Spring Harbor Laboratory Press, Cold Spring Harbor, N.Y.). The inducible luciferase reporter plasmid pFRLuc (Stratagene Cloning Systems, La Jolla, Calif., USA), contains five copies of the GAL4 response element and a synthetic minimal promoter.
(§2) NIH3T3 cells were maintained at 37′C and 5% CO2 in Dulbecco's modified Eagle's medium (DMEM) supplemented with 10% bovine calf serum, both obtained from Mediatech Inc., Manassas, Va. Cells were planted in a 96-well plate at a density of 2,500 cells/well in 50 μL of growth medium. The following day cells were first treated with 35 μL of serum-free DMEM containing dimethyl sulfoxide (DMSO; control) or a DMSO solution containing ligand. Cells were then transfected with 15 μl of serum-free DMEM containing 0.04 μg of EcR construct, 0.04 ug of RXR construct, and 0.16 μg of luciferase reporter construct per well, using SuperFect™ transfection reagent (Qiagen Inc., Valencia, Calif., USA) according to the manufacturer's instructions. Ligands were tested at 8 doses from 0.01-33 μM and the final DMSO concentration was 0.33% in both control and treatment wells. After a 48 hour post-treatment and transfection incubation, the cells were assayed for luciferase activity using the Bright-Glo™ Luciferase Assay System (Promega Corporation, Madison, Wis., USA) following the manufacturer's instructions. EC50 values were measured minimally in duplicate.
(§3) Luciferase reporter gene expression was measured 48 h after cell treatment using Bright-Glo™ Luciferase Assay System from Promega (E2650). Luminescence was detected at room temperature using a Dynex MLX microtiter plate luminometer.
(§4) Each assay was conducted in two separate wells, and the two values were averaged. Fold inductions were calculated by dividing relative light units (“RLU”) in ligand treated cells with RLU in DMSO treated cells. EC50s were calculated from dose response data using a three-parameter logistic model. Relative Max FI was determined as the maximum fold induction of the tested ligand (an embodiment of the invention) observed at any concentration relative to the maximum fold induction of GS™-E ligand (3,5-dimethyl-benzoic acid N-tert-butyl-N′-(2-ethyl-3-methoxy-benzoyl)-hydrazide) observed at any concentration.

[2] = target: wild-type Choristoneura fumiferana EcR (D, E and F domains) (Choristoneura fumiferana, UniProt O77240); assay type: cell-based; settings: WT-CtEcR, 3T3 Cells; for RMFI (relative maximum fold induction): relative to GS-E ligand
Protocol: as §1, §2, §3, §4

Row | Structure (SMILES) | EC50 ([1]; rac, read-out: EC50) [nM] | RMFI (relative maximum fold induction) ([1]; rac) | EC50 ([2]; rac, read-out: EC50) [nM] | RMFI (relative maximum fold induction) ([2]; rac) | also measured
1 | CCCC(N(NC(=O)c1ccc(Cl)nc1)C(=O)c1cc(C)cc(C)c1)C(C)(C)C (racemic) [rac-28] | 47 | 0.68 | 470 | 0.70 | 
2 | C=CC[C@H](C1CCCCC1)N(NC(=O)c1cccc(OC)c1C)C(=O)c1cc(C)c(OC)c(C)c1 [Example 61, (R)-4-Methoxy-3,5-dimethyl-benzoic acid N-(1-cyclohexyl-but-3-enyl)-N′-(3-methoxy-2-methyl-benzoyl)-hydrazide] |  |  |  |  | EC50 ([1]; R): 1020 nM; RMFI (relative maximum fold induction) ([1]; R): 0.67; EC50 ([2]; R): ~3300 nM; RMFI (relative maximum fold induction) ([2]; R): 0.33
3 | C=CCC(C1CCCCC1)N(NC(=O)c1cccc(OC)c1C)C(=O)c1cc(C)cc(C)c1 (racemic) [rac-60] | ~200 | 0.73 | ~1000 | 0.49 | 
4 | CCC[C@H](N(NC(=O)c1ccccc1)C(=O)c1cc(C)cc(C)c1)C(C)(C)C [Example 32] |  |  |  |  | EC50 ([1]; S): 267 nM; RMFI (relative maximum fold induction) ([1]; S): 0.38; EC50 ([2]; S): ~3300 nM; RMFI (relative maximum fold induction) ([2]; S): 0.19
5 | CCC[C@@H](N(NC(=O)c1cccc(OC)c1C)C(=O)c1cc(OC)c(C)c(OC)c1)C(C)(C)C [Example 51, (R)-3,5-Dimethoxy-4-methyl-benzoic acid N-(1-tert-butyl-butyl)-N′-(3-methoxy-2-methyl-benzoyl)-hydrazide] |  |  |  |  | EC50 ([1]; R): 0.56 nM; RMFI (relative maximum fold induction) ([1]; R): 0.81; EC50 ([2]; R): ~70 nM; RMFI (relative maximum fold induction) ([2]; R): 1.00
6 | CCCC(N(NC(=O)c1cccc(OC)c1C)C(=O)c1cc(OC)c(C)c(OC)c1)C(C)(C)C (racemic) [rac-51] | 15 | 0.81 | 80.2 | 0.82 | 
7 | CCCC(N(NC(=O)c1cccc(C)c1)C(=O)c1cc(C)cc(C)c1)C(C)(C)C (racemic) [rac-8] | 16.2 | 0.86 | 193 | 0.88 | 
8 | CCC[C@@H](N(NC(=O)c1cc(OC)c(C)c(OC)c1)C(=O)c1cc(C)cc(C)c1)C(C)(C)C [Example 19, (R)-3,5-Dimethyl-benzoic acid N-(1-tert-butyl-butyl)-N′-(3,5-dimethoxy-4-methyl-benzoyl)-hydrazide] |  |  |  |  | EC50 ([1]; R): ~2000 nM; RMFI (relative maximum fold induction) ([1]; R): 0.37; EC50 ([2]; R): ~5000 nM; RMFI (relative maximum fold induction) ([2]; R): 0.09
9 | C=CC[C@@H](CCc1ccccc1)N(NC(=O)c1ccc(CC)cc1)C(=O)c1cc(C)cc(C)c1 [Example 62, (R)-3,5-Dimethyl-benzoic Acid N′-(4-ethyl-benzoyl)-N-(1-phenethyl-but-3-enyl)-hydrazide] |  |  |  |  | EC50 ([1]; R): 1990 nM; RMFI (relative maximum fold induction) ([1]; R): 0.54; EC50 ([2]; R): 3090 nM; RMFI (relative maximum fold induction) ([2]; R): 0.14
10 | CCCC(N(NC(=O)OC(C)(C)C)C(=O)c1cc(C)cc(C)c1)C(C)(C)C (racemic) [rac-49, rac-N′-(1-tert-Butyl-butyl)-N′-(3,5-dimethyl-benzoyl)-hydrazinecarboxylic acid tert-butyl ester] |  | 0.50 |  | 0.02 | EC50 ([1]; rac): ~4000 nM; EC50 ([2]; rac): > 33000 nM
11 | CCC[C@H](N(NC(=O)c1ccc2ccccc2c1)C(=O)c1cc(C)cc(C)c1)C(C)(C)C [Example S-24] |  |  |  |  | EC50 ([2]; S, read-out: EC50): 5380 nM; RMFI (relative maximum fold induction) ([2]; S): 0.13
12 | CCC[C@H](N(NC(=O)c1c(F)cccc1F)C(=O)c1cc(C)cc(C)c1)C(C)(C)C [Example 40, (S)-3,5-Dimethyl-benzoic acid N-(1-tert-butyl-butyl)-N′-(2,6-difluoro-benzoyl)-hydrazide] |  |  |  |  | EC50 ([1]; S): ~20 nM; RMFI (relative maximum fold induction) ([1]; S): 0.69; EC50 ([2]; S): ~1000 nM; RMFI (relative maximum fold induction) ([2]; S): 0.39
13 | CCCC(N(NC(=O)c1ccccc1Br)C(=O)c1cc(C)cc(C)c1)C(C)(C)C (racemic) [rac-7] | ~3 | 1.28 | 86 | 0.63 | 
14 | CCC[C@H](N(NC(=O)c1cccnc1Cl)C(=O)c1cc(C)cc(C)c1)C(C)(C)C [Example 45, (S)-3,5-Dimethylbenzoic acid N-(1-tert-butyl-butyl)-N′-(2-chloro-pyridine-3-carbonyl)-hydrazide] |  |  |  |  | EC50 ([1]; S): 1470 nM; RMFI (relative maximum fold induction) ([1]; S): 0.80; EC50 ([2]; S): ~20000 nM; RMFI (relative maximum fold induction) ([2]; S): 0.05
15 | CCCC(N(NC(=O)c1ccc(OC)cc1)C(=O)c1cc(C)cc(C)c1)C(C)(C)C (racemic) [rac-13] | ~5 | 0.71 | ~100 | 0.54 | 
16 | CCC[C@@H](N(NC(=O)c1ccccc1OC)C(=O)c1cc(C)cc(C)c1)C(C)(C)C [Example 4, (R)-3,5-Dimethyl-benzoic acid N-(1-tert-butyl-butyl)-N′-(2-meihoxy-benzoyl)-hydrazide] |  |  |  |  | EC50 ([1]; R): 99 nM; RMFI (relative maximum fold induction) ([1]; R): 0.52; EC50 ([2]; R): 993 nM; RMFI (relative maximum fold induction) ([2]; R): 0.38
17 | CCCC(N(NC(=O)c1cccc(OC)c1C)C(=O)c1cc(C)cc(C)c1)C(C)(C)C (racemic) [rac-29] | 0.15 | 0.77 | 3.88 | 0.98 | 
18 | C=CCC(CCc1ccccc1)N(NC(=O)c1ccc(CC)cc1)C(=O)c1cc(C)cc(C)c1 (racemic) [rac-62] | 2110 | 0.67 | ~5000 | 0.06 | 
19 | CCCC(N(NC(=O)c1ccc2ccccc2c1)C(=O)c1cc(C)cc(C)c1)C(C)(C)C (racemic) [rac-24] | 61 | 0.62 | ~500 | 0.44 | 
20 | CCC[C@H](C1CCCCC1)N(NC(=O)c1ccccc1)C(=O)c1cc(C)cc(C)c1 [Example 53, (R)-3,5-Dimethyl-benzoic acid N′-benzoyl-N-(1-cyclohexyl-butyl)-hydrazide] |  |  |  |  | EC50 ([1]; R): 629 nM; RMFI (relative maximum fold induction) ([1]; R): 0.62; EC50 ([2]; R): ~3300 nM; RMFI (relative maximum fold induction) ([2]; R): 0.30
21 | CCCC(N(NC(=O)c1cccs1)C(=O)c1cc(C)cc(C)c1)C(C)(C)C (racemic) [rac-25] | 172 | 0.89 | 3160 | 0.52 | 
22 | CCCC(N(NC(=O)c1ccc(OC)c(OC)c1)C(=O)c1cc(C)cc(C)c1)C(C)(C)C (racemic) [rac-17] | 720 | 0.51 | 4130 | 0.25 | 
23 | CCC[C@H](N(NC(=O)OC(C)(C)C)C(=O)c1cc(C)cc(C)c1)C(C)(C)C [Example 48, (S)—N′-(1-tert-Butyl-butyl)-N′-(3,5-dimethyl-benzoyl)-hydrazinecarboxylic Acid tert-butyl Ester] |  |  |  |  | EC50 ([1]; S): 6600 nM; RMFI (relative maximum fold induction) ([1]; S): 0.20; EC50 ([2]; S): > 33000 nM; RMFI (relative maximum fold induction) ([2]; S): 0.03
24 | CCC[C@H](N(NC(=O)c1ccc(Cl)nc1)C(=O)c1cc(C)cc(C)c1)C(C)(C)C [Example 46, (S)-3,5-Dimethyl-benzoic acid N-(1-tert-butyl-butyl)-N′-(6-chloro-pyridine-3-carbonyl)-hydrazide] |  |  |  |  | EC50 ([1]; S): 3990 nM; RMFI (relative maximum fold induction) ([1]; S): 0.42

Source: patent publication US20200270225A1, “Chiral Diacylhydrazine Ligands for Modulating the Expression of Exogenous Genes via an Ecdysone Receptor Complex” (Intrexon Corporation, priority 2007, published 2020)
